From patent publication US20250223303A1, “TRICYCLIC BORONIC ACID DERIVATIVE, AND PREPARATION METHOD THEREFOR AND APPLICATION THEREOF” (priority 2021, published 2025) come the findings set out here.

Assay [1] relates to Klebsiella pneumoniae ARLG 1196. In words: MIC test of compounds in combination with antibiotics, Klebsiella pneumoniae ARLG 1196. As to conditions: Klebsiella pneumoniae ARLG-1196 CTM-1 group, SHV, NDM, TEM.
Assay [2] concerns Acinetobacter baumannii ARLG-1853 OXA-23. As to the kind of experiment: MIC test of compounds in combination with antibiotics, Acinetobacter baumannii ARLG-1853. The settings on record: Acinetobacter baumannii ARLG-1853 OXA-23.
Method: (§15) 2-Fold gradient dilution of antibiotics: 300 μL of CAMHVIB medium was added to columns 2-12 of a 96-deep well plate. In column 1, 24 μL of antibiotic stock solution and 576 µL of CAMHB medium were added and mixed well, with a concentration of 512 μg/mL. 300 µL of antibiotic solution was transferred from the column 1 to the second column and mixed well. The process was repeated until column 11, and the column 12 was a blank control.
(§16) Dilution of combined compounds: the compound was diluted 400-fold to 32 μg/ml with CAMHB medium.
(§17) Working solution aliquoting: 25 μL of antibiotics was aliquoted into the 96-U bottom plate with a pipette, and 25 μL of combined compound was added to each well. If antibiotics were used alone, 25 μL of CAMHB medium was added.
(§18) Inoculum solution preparation: 5-6 single colonies were selected from the plate and suspended in normal saline. The bacterial suspension was adjusted to 0.2 (i.e., 0.5 McFarland turbidity, with a bacterial concentration was about 1 to 2×10^8 CFU/mL) with a turbidity meter. The bacterial suspension was diluted 100-fold with CAMHB medium for later use.
(§19) Inoculation: 50 μL of inoculum solution was transferred to the above 50 μL compound plate with a pipette.
(§20) Culture: The 96-U bottom plate was placed in an incubator at 37° C. for 18 to 20 h.
A further assay addresses T1, OXA-23 (Acinetobacter baumannii, UniProt Q9L4P2).
T1 construct: purchased GenScript Biotech Co., Ltd
In words: Enzyme activity test (FC5 fluorescent substrate), OXA-23. It is filed as biochemical. The settings on record: enzyme 650 pM, substrate FC5 50 μM. The protocol:
(§1) Compound stock solution: the compound was prepared as a 50 mM DMSO stock solution. […] After aliquoting, the compound stock solutions were stored at −20° C.
(§2) Preparation and storage of antibiotic substrate stock solution: antibiotic fluorescent substrate FC5 was synthesized internally and prepared as a 2 mM stock solution, which was stored at −20° C. after aliquoting.
(§3) Storage of β-lactamases: each […] was synthesized by GenScript Biotech Co., Ltd., and stored at −80° C. after aliquoting to avoid repeated freezing and thawing.
(§4) Preparation of enzyme activity reaction buffer: SBL buffer: PBS pH 7.4, 0.01% (v/v) Triton X-100; MBL buffer: 50 Mm HEPES in PBS pH 7.2, 1 μM ZnSO4, 1 μg/mL BSA, 0.010% v/v Triton X-100
(§5) a) The compound to be tested and buffer were taken out and warmed to room temperature.
(§6) b) Each compound was diluted with DMSO and buffer to the initial experimental concentration (Table 2), and then the compound was diluted 3-fold for a total of 10 concentrations.
(§7) c) Diluted compounds were added to wells 1 to 20 of a 384-well black plate at 2 replicate wells per concentration, 5 μL per well. 5 µL of DMSO was added to wells 21 to 24.
(§8) d) Each enzyme was diluted to the experimental concentration (Table 2) in SBL and MBL buffers, and finally 35 μL/well was added, with a total of 22 wells. 35 μL buffer was added to wells 23 to 24. Wells 21 to well 22 served as the maximum test values (Max), while wells 23 to 24 were designated as the minimum test values (Min).
(§9) e) The 384-well plate was centrifuged quickly and incubated for 10 minutes at room temperature.
(§10) f) The antibiotic substrate FC5 was diluted in buffer to the experimental concentration of each enzyme (Table 2).
(§11) g) The incubated 384-well plate was taken out and FC-5 was added to wells […]. The 384-well plate was centrifuged rapidly and promptly transferred to a microplate reader for reading.
(§12) h) The fluorescence intensity was measured at 355 nm excitation light/460 nm emission light in the microplate reader, and the fluorescence intensity was measured every three minutes for a total of 10 measurements.
(§13) Initial velocity of enzyme reaction V: Subtract the background reading (Min wells) without enzyme from each fluorescence intensity reading, and then perform on a linear regression analysis on each compound concentration group. The slope is the initial velocity of enzyme reaction (V) at each compound concentration.
(§14) Dose-effect curve and IC50 calculation of compounds: The initial velocity of enzyme reaction under the effect of each concentration of compounds was subjected to nonlinear regression fitting. The IC50 (half-maximal inhibitory concentration) of each compound was calculated using the formula […] (Vi: the initial velocity of enzyme reaction at each compound concentration; V0: initial velocity of enzyme reaction without the compound (Max wells). The software used was Graphpad prism 8.

Assay [3] deals with Acinetobacter baumannii WX-AB005. As to the kind of experiment: MIC test of compounds in combination with antibiotics, Acinetobacter baumannii WX-AB005. As to conditions: Acinetobacter baumannii WX-AB005.
Method: as §15, §16, §17, §18, §19, §20
For assay [4], the system named is Klebsiella pneumoniae ATCC BAA-1705. As to the kind of experiment: MIC test of compounds in combination with antibiotics, Klebsiella pneumoniae ATCC BAA-1705. The settings on record: Klebsiella pneumoniae ATCC BAA-1705 KPC-2.
The next assay concerns the target T2, IMP-1 (Serratia marcescens, UniProt P52699).
T2 construct: purchased GenScript Biotech Co., Ltd
In words: Enzyme activity test (FC5 fluorescent substrate), IMP-1. The class given is biochemical. The settings on record: enzyme 20 pM, substrate FC5 15 μM. The protocol: as §1, §2, §3, §4, §5, §6, §7, §8, §9, §10, §11, §12, §13, §14

A further assay concerns the target Ampc (UniProt P24735). As to the kind of experiment: Enzyme activity test (FC5 fluorescent substrate), AmpC. It is filed as biochemical. The settings on record: enzyme 25 pM, substrate FC5 15 μM. The protocol: as §1, §2, §3, §4, §5, §6, §7, §8, §9, §10, §11, §12, §13, §14
Assay [5] deals with Acinetobacter baumannii WX-AB013. As to the kind of experiment: MIC test of compounds in combination with antibiotics, Acinetobacter baumannii WX-AB013. As to conditions: Acinetobacter baumannii WX-AB013.
Method: as §15, §16, §17, §18, §19, §20
Assay [6] relates to Klebsiella pneumoniae ATCC BAA-2470. As to the kind of experiment: MIC test of compounds in combination with antibiotics, Klebsiella pneumoniae ATCC BAA-2470. As to conditions: Klebsiella pneumoniae ATCC BAA-2470 NDM-1.
Method: Strain preparation: the strains to be tested were streaked from glycerol tube at −80° C. onto Mueller Hinton II Agar plates. The plates were then placed in a 37° C. incubator and cultured for 18-24 hours.
Media preparation: CAMHB (Mueller Hinton II Broth): 22 g of powder was dissolved in 1 L of purified water and sterilized at 121° C. for 10 min for use. Saline: 8.5 g NaCl was dissolved in 1 L of pure water and sterilized at 121° C. for 30 min for use.
Preparation of compound and antibiotic stock solutions: the compound and antibiotic were dissolved in DMSO or water to 12.8 mg/mL.
as §15, §16, §17, §18, §19, §20
After the incubation, bacterial growth was visually observed, and the test plate was photographed and recorded.
The test system of assay [7] is Acinetobacter baumannii ARLG-1852 OXA-23. As to the kind of experiment: MIC test of compounds in combination with antibiotics, Acinetobacter baumannii ARLG-1852. The settings on record: Acinetobacter baumannii ARLG-1852 OXA-23.
Method: as §15, §16, §17, §18, §19, §20
The target in the next assay is T3, CTX-M-15 (Escherichia coli, UniProt Q9EXV5).
T3 construct: purchased GenScript Biotech Co., Ltd
T3 sequence (Q9EXV5 entry or part of it): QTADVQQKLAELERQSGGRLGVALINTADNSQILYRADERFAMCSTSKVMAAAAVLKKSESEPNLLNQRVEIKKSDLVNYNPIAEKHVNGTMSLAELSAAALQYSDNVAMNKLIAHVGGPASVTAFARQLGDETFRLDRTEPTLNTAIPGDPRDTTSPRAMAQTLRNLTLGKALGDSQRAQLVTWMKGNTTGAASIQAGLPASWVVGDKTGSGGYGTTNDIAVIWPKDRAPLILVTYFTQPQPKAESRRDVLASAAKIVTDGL
In words: Enzyme activity test (FC5 fluorescent substrate), CTX-M-15. The class given is biochemical. The settings on record: enzyme 45 pM, substrate FC5 50 μM. The protocol:
as §1, §2, §3, §4, §5, §6, §7, §8, §9, §10, §11, §12, §13, §14

A further assay deals with T4, VIM-2 (Escherichia coli, UniProt Q5U7L7).
T4 construct: purchased GenScript Biotech Co., Ltd
As to the kind of experiment: Enzyme activity test (FC5 fluorescent substrate), VIM-2. The class given is biochemical. As to conditions: enzyme 25 pM, substrate FC5 20 μM. The protocol:
as §1, §2, §3, §4, §5, §6, §7, §8, §9, §10, §11, §12, §13, §14

The target of a further assay is T5, KPC-2 (Klebsiella pneumoniae, UniProt Q9F663).
T5 construct: purchased GenScript Biotech Co., Ltd
T5 sequence (Q9F663 25-293 limits assumed): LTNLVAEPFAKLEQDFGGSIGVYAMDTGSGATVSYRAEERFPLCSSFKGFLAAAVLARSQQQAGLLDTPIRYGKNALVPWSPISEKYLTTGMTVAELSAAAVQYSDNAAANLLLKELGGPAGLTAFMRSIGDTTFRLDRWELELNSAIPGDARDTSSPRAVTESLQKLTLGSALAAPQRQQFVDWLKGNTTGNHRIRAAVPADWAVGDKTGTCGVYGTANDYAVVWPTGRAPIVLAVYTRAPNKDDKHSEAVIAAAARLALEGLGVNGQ
In words: Enzyme activity test (FC5 fluorescent substrate), KPC-2. It is filed as biochemical. As to conditions: enzyme 45 pM, substrate FC5 25 μM. The protocol: as §1, §2, §3, §4, §5, §6, §7, §8, §9, §10, §11, §12, §13, §14

For assay [8], the system named is carbapenem-resistant Acinetobacter baumannii strains. In words: MIC test of compounds in combination with antibiotics, resistant Acinetobacter baumannii strains. As to conditions: all resistant strains of Acinetobacter baumannii.
For assay [9], the system named is Acinetobacter baumannii ARLG-1809 OXA-23. As to the kind of experiment: MIC test of compounds in combination with antibiotics, Acinetobacter baumannii ARLG-1809. The settings on record: Acinetobacter baumannii ARLG-1809 OXA-23.
Method: as §15, §16, §17, §18, §19, §20

T1 sequence (Q9L4P2 18-273): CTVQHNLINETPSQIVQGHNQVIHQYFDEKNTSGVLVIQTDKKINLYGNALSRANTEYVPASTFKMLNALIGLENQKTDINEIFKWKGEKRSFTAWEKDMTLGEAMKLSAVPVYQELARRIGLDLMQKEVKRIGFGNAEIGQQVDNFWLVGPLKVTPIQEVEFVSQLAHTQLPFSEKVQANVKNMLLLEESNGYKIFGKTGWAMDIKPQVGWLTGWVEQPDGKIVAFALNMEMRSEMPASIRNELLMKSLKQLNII
T2 sequence (P52699 19-246 limits assumed): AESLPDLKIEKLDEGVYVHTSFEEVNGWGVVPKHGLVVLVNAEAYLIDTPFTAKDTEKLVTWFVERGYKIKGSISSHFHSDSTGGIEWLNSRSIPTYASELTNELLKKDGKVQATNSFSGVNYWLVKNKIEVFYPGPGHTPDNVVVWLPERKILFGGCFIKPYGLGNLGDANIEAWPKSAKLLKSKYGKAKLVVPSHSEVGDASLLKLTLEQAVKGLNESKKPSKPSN

A word on the MIC: it is the smallest concentration in the dilution series that meets the test's criterion for growth inhibition. As usually defined, the IC50 is the concentration needed to halve the response being measured. Low readings indicate inhibition by little substance, high ones a need for much substance. With `NCCNC1CCC(CC(=O)N[C@H]2Cc3cccc(C(=O)O)c3OB2O)CC1` (some centres unmarked) [VNRX-5133, reference compound], the minimum inhibitory concentration (MIC) in assay [1] (Cefepime + compound (8 μg/mL)) was found to be 1 µg/mL; in [1] (Meropenem + compound (8 μg/mL)), 1 µg/mL; in [2] (Cefepime + compound (8 μg/mL)), 32 µg/mL; in [2] (Meropenem + compound (8 μg/mL)), 128 µg/mL; in assay [3] (Cefepime + compound (8 μg/mL)), 128 µg/mL; in [3] (Meropenem + compound (8 μg/mL)), 128 µg/mL. Besides, the minimal inhibitory concentration (MIC) was determined as 0.25 µg/mL in assay [4] (Cefepime + compound (8 μg/mL)); 0.125 µg/mL in assay [4] (Meropenem + compound (8 μg/mL)); 64 µg/mL in assay [5] (Cefepime + compound (8 μg/mL)); 128 µg/mL in [5] (Meropenem + compound (8 μg/mL)); 1 µg/mL in assay [6] (Cefepime + compound (8 μg/mL)); 1 µg/mL in [6] (Meropenem + compound (8 μg/mL)). The minimal inhibitory concentration (MIC) in [7] (Cefepime + compound (8 μg/mL)) stood at 32 µg/mL; in assay [7] (Meropenem + compound (8 μg/mL)) it was 128 µg/mL; in [9] (Cefepime + compound (8 μg/mL)), 32 µg/mL; in [9] (Meropenem + compound (8 μg/mL)) it was 128 µg/mL. For the same molecule, the half-maximal inhibitory concentration (IC50) on OXA-23 is above 10000 nM; on IMP-1 it was above 10000 nM; against Ampc, 857 nM; at CTX-M-15, 12.4 nM; at VIM-2, 4.4 nM; against KPC-2 it was 64.2 nM. Also, the MIC of the combination with cefepime/meropenem in assay [8] is above 32 µg/mL.
